From patent publication US7799947B2, “In vivo imaging compounds” (Hammersmith Imanet Limited, priority 2005, dated 2010)

Target: T1, NR2B receptor (Rattus norvegicus, UniProt P35439+Q00960)
T1 construct: NMDA, Polyamine source: Wistar Rat cerebral cortex; from tissue; host or cells: Wistar rat cerebral cortex
Test: In vitro affinity measurement, [^3H]Ifenprodil radioligand binding (NMDA, Polyamine)
Conditions: Wistar Rat cerebral cortex; ligand [^3H]Ifenprodil; 2 hours at 4° C.; six concentrations tested in duplicate

T1 sequence (Q00960 27-1482, other chains not shown): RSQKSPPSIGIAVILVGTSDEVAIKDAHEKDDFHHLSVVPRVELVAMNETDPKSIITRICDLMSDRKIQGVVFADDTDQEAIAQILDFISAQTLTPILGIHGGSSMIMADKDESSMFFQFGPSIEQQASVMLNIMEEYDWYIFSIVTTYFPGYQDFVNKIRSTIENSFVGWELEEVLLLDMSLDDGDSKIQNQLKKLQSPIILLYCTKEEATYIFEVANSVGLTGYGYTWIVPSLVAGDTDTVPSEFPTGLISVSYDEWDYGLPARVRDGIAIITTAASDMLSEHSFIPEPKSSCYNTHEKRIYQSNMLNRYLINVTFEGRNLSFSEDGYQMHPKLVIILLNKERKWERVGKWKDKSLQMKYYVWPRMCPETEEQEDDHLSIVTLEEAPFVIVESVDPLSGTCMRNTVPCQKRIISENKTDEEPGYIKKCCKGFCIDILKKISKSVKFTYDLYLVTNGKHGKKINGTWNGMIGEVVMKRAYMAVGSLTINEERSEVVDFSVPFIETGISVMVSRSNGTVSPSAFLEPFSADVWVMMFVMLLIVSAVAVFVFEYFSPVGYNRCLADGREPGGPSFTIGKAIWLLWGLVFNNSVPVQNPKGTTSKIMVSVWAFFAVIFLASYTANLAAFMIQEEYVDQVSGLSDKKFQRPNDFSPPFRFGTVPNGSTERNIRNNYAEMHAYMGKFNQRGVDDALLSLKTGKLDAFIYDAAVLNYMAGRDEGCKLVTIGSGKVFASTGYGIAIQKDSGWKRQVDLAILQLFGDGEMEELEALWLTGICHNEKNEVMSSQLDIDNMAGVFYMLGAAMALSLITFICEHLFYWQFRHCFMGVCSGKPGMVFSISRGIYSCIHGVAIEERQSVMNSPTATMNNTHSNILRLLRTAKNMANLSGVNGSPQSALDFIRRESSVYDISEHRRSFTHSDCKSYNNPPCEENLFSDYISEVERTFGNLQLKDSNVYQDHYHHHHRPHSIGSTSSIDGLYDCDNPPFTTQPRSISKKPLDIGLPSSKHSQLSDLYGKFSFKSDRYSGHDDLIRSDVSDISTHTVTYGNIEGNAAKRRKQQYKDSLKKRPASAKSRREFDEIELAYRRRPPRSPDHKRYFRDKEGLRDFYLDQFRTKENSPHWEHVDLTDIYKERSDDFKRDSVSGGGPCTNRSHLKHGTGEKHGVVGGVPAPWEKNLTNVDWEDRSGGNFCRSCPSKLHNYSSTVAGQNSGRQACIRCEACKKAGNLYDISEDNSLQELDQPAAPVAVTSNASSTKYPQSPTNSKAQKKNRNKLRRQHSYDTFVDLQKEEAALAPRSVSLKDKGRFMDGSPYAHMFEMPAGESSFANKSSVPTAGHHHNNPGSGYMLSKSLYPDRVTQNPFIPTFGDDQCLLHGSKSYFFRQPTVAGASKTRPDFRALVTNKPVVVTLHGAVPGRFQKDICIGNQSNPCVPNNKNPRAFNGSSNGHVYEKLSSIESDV

| Ki | SMILES |
| --- | --- |
| < 11 nM | N=C(NCc1cc(Br)ccc1OCCF)c1ccc(OC(F)(F)F)cc1 [EA16] |
| < 11 nM | COc1ccccc1CNC(=N)c1ccc(I)cc1 [EA12, N-(2-methoxybenzyl)-4-iodophenyl amidine] |
| < 2 nM | COc1cccc(OC)c1CNC(=N)c1ccc(OC(F)(F)F)cc1 [EA6, N-(2,6-dimethoxybenzyl)-4-trifluoromethoxyphenyl amidine] |
| < 11 nM | COc1cc(CNC(=N)c2ccc(OC(F)(F)F)cc2)c(OC)cc1Cl [EA8, N-(2,5-dimethoxy-4-chlorobenzyl)-4-trifluoromethoxyphenyl amidine] |
| < 11 nM | N=C(NCc1cccc(Cl)c1)c1ccc(I)cc1 [EA13, N-(3-chlorobenzyl)-4-iodophenyl amidine] |
| < 11 nM | N=C(NCc1cc(Cl)cc(OCCF)c1)c1ccc(OC(F)(F)F)cc1 [EA15, N-(3-(2-fluoroethoxy)-5-chlorobenzyl)-4-trifluoromethoxyphenyl amidine] |
| < 2 nM | COc1ccc(Cl)cc1CNC(=N)c1ccc(OC(F)(F)F)cc1 [EA9, N-(2-methoxy-5-chlorobenzyl)-4-trifluoromethoxyphenyl amidine] |
| < 11 nM | COc1ccc(OC)c(CNC(=N)c2ccc(OC(F)(F)F)cc2)c1 [EA5, N-(2,5-dimethoxybenzyl)-4-trifluoromethoxyphenyl amidine] |
| < 11 nM | COc1cc(CNC(=N)c2ccc(OC(F)(F)F)cc2)cc(OC)c1 [EA4, N-(3,5-dimethoxybenzyl)-4-trifluoromethoxyphenyl amidine] |
| > 100 nM | COc1cccc(CNC(=N)c2ccc(OC(F)(F)F)cc2)c1OC [EA7, N-(2,3-dimethoxybenzyl)-4-trifluoromethoxyphenyl amidine] |
| < 2 nM | COc1ccc(Br)cc1CNC(=N)c1ccc(OC(F)(F)F)cc1 [EA10, N-(2-methoxy-5-bromobenzyl)-4-trifluoromethoxyphenyl amidine] |
| < 11 nM | COc1cc(Cl)cc(CNC(=N)c2ccc(OC(F)(F)F)cc2)c1 [EA11, N-(3-methoxy-5-chlorobenzyl)-4-trifluoromethoxyphenyl amidine] |
| < 2 nM | N=C(NCc1cc(Cl)cc(Cl)c1)c1ccc(I)cc1 [EA14, N-(3,5-dichlorobenzyl)-4-iodophenyl amidine] |
